Legend:
human V1a receptor = target: T1, human V1a receptor (Homo sapiens, UniProt P37288); assay: Cellular in vitro assay for determining vasopressin receptor activity, V1a receptor cell line (CHO, aequorin luminescence); assay type: cell-based; details: for IC50: CHO cell line transfected with human V1a receptor, [Arg]-vasopressin at EC50 concentration, read-out: IC50 hV1a; for ratio IC50 hV2/hV1a: selectivity ratio IC50 hV2 / IC50 hV1a
T1 construct: expressed in transfected cells; host or cells: CHO K1 (ATCC), also stably transfected with a modified aequorin
In short: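 Cells were plated the day before in medium containing 5 μg/ml coelenterazine and kept at 37° C. Compounds at various concentrations were then added for 10 minutes. Next, [Arg]-vasopressin at EC50 was applied and light output recorded at once, yielding IC50.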

human V2 receptor = target: T2, human V2 receptor (Homo sapiens, UniProt P30518); assay: Cellular in vitro assay for determining vasopressin receptor activity, V2 receptor cell line (CHO, CRE-luciferase); assay type: cell-based; details: CHO cell line transfected with human V2 receptor; [Arg8]-vasopressin at EC50 concentration, 3 hours; read-out: IC50 hV2
T2 construct: expressed in transfected cells; host or cells: CHO K1 (ATCC) expressing firefly luciferase under a CRE-responsive promoter
T2 sequence (P30518 whole entry): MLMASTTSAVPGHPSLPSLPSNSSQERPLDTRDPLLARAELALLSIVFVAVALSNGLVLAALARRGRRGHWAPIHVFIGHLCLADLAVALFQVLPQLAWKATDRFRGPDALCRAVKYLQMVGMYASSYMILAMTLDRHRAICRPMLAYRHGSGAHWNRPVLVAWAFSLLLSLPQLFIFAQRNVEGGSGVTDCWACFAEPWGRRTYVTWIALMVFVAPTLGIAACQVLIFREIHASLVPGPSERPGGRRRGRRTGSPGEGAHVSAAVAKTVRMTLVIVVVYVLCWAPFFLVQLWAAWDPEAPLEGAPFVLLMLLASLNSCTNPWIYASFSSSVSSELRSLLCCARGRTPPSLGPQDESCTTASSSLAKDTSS

T1 sequence (P37288 whole entry): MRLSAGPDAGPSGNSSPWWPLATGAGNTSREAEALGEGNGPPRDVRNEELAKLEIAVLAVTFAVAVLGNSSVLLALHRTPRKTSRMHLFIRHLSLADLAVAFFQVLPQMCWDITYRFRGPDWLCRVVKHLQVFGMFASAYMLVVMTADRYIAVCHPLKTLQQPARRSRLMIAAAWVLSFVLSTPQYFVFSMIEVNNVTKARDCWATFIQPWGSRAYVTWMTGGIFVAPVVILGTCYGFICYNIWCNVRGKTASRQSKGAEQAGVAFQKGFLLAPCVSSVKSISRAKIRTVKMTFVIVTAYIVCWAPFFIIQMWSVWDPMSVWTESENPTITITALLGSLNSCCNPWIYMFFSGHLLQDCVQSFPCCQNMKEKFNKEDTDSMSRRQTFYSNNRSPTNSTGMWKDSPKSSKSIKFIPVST

SMILES	IC50 (human V1a receptor) [nM]	ratio IC50 hV2/hV1a (human V1a receptor)	IC50 (human V2 receptor) [nM]
NC(=O)[C@@H]1CCCN1c1ccncc1-n1cnc(Cn2nc(-c3ccc(Cl)cc3)n(C[C@H](O)C(F)(F)F)c2=O)n1 [Example 23, 1-{3-[3-({3-(4-Chlorophenyl)-5-oxo-4-[(2S)-3,3,3-trifluoro-2-hydroxypropyl]-4,5-dihydro-1H-1,2,4-triazol-1-yl}methyl)-1H-1,2,4-triazol-1-yl]pyridin-4-yl}-L-prolinamide]	710	6.0	4250
NC(=O)[C@H]1CC(F)(F)CN1c1ccncc1-n1cnc(Cn2nc(-c3ccc(Cl)cc3)n(C[C@H](O)C(F)(F)F)c2=O)n1 [Example 24, 1-{3-[3-({3-(4-Chlorophenyl)-5-oxo-4-[(2S)-3,3,3-trifluoro-2-hydroxypropyl]-4,5-dihydro-1H-1,2,4-triazol-1-yl}methyl)-1H-1,2,4-triazol-1-yl]pyridin-4-yl}-4,4-difluoro-D-prolinamide]	330	14.2	4670
NC(=O)[C@@H]1CC(F)(F)CN1c1ccncc1-n1cnc(Cn2nc(-c3ccc(Cl)cc3)n(C[C@H](O)C(F)(F)F)c2=O)n1 [Example 25, 1-{3-[3-({3-(4-Chlorophenyl)-5-oxo-4-[(2S)-3,3,3-trifluoro-2-hydroxypropyl]-4,5-dihydro-1H-1,2,4-triazol-1-yl}methyl)-1H-1,2,4-triazol-1-yl]pyridin-4-yl}-4,4-difluoro-L-prolinamide]	1970	2.5	4900
O=C(Nc1ccncc1-n1cnc(Cn2nc(-c3ccc(Cl)cc3)n(C[C@H](O)C(F)(F)F)c2=O)n1)OCC(F)(F)F [Example 26, 2,2,2-Trifluoroethyl {3-[3-({3-(4-chlorophenyl)-5-oxo-4-[(2S)-3,3,3-trifluoro-2-hydroxypropyl]-4,5-dihydro-1H-1,2,4-triazol-1-yl}methyl)-1H-1,2,4-triazol-1-yl]pyridin-4-yl}carbamate]	58	5.6	323
O=C(CC(F)(F)F)Nc1ccncc1-n1cnc(Cn2nc(-c3ccc(Cl)cc3)n(C[C@H](O)C(F)(F)F)c2=O)n1 [Example 27, N-{3-[3-({3-(4-Chlorophenyl)-5-oxo-4-[(2S)-3,3,3-trifluoro-2-hydroxypropyl]-4,5-dihydro-1H-1,2,4-triazol-1-yl}methyl)-1H-1,2,4-triazol-1-yl]pyridin-4-yl}-3,3,3-trifluoropropanamide]	4.05	69.8	283
CC(=O)Nc1ccncc1-n1cnc(Cn2nc(-c3ccc(Cl)cc3)n(C[C@H](O)C(F)(F)F)c2=O)n1 [Example 28, N-{3-[3-({3-(4-Chlorophenyl)-5-oxo-4-[(2S)-3,3,3-trifluoro-2-hydroxypropyl]-4,5-dihydro-1H-1,2,4-triazol-1-yl}methyl)-1H-1,2,4-triazol-1-yl]pyridin-4-yl}acetamide]	11	35.9	395
O=C(CC1CC1)Nc1ccncc1-n1cnc(Cn2nc(-c3ccc(Cl)cc3)n(C[C@H](O)C(F)(F)F)c2=O)n1 [Example 30, N-{3-[3-({3-(4-Chlorophenyl)-5-oxo-4-[(2S)-3,3,3-trifluoro-2-hydroxypropyl]-4,5-dihydro-1H-1,2,4-triazol-1-yl}methyl)-1H-1,2,4-triazol-1-yl]pyridin-4-yl}-2-cyclopropylacetamide]	12.8	61.0	783
O=C(Nc1ccncc1-n1cnc(Cn2nc(-c3ccc(Cl)cc3)n(C[C@H](O)C(F)(F)F)c2=O)n1)C1CC(F)(F)C1 [Example 31, N-{3-[3-({3-(4-Chlorophenyl)-5-oxo-4-[(2S)-3,3,3-trifluoro-2-hydroxypropyl]-4,5-dihydro-1H-1,2,4-triazol-1-yl}methyl)-1H-1,2,4-triazol-1-yl]pyridin-4-yl}-3,3-difluorocyclobutanecarboxamide]	18.3	90.8	1670
O=C(Nc1ccncc1-n1cnc(Cn2nc(-c3ccc(Cl)cc3)n(C[C@H](O)C(F)(F)F)c2=O)n1)C1(C(F)(F)F)CC1 [Example 32, N-{3-[3-({3-(4-Chlorophenyl)-5-oxo-4-[(2S)-3,3,3-trifluoro-2-hydroxypropyl]-4,5-dihydro-1H-1,2,4-triazol-1-yl}methyl)-1H-1,2,4-triazol-1-yl]pyridin-4-yl}-1-(trifluoromethyl)cyclopropanecarboxamide]	5	150.7	753
O=C(Nc1ccncc1-n1cnc(Cn2nc(-c3ccc(Cl)cc3)n(C[C@H](O)C(F)(F)F)c2=O)n1)[C@@H]1C[C@@H]1F [Example 34, (1S,2S)—N-{t3-[3-({3-(4-Chlorophenyl)-5-oxo-4-[(2S)-3,3,3-trifluoro-2-hydroxypropyl]-4,5-dihydro-1H-1,2,4-triazol-1-yl}methyl)-1H-1,2,4-triazol-1-yl]pyridin-4-yl}-2-fluorocyclopropanecarboxamide]	13.5	92.1	1240
O=C(CF)Nc1cccnc1-n1cnc(Cn2nc(-c3ccc(Cl)cc3)n(C[C@H](O)C(F)(F)F)c2=O)n1 [Example 39, N-{2-[3-({3-(4-Chlorophenyl)-5-oxo-4-[(2S)-3,3,3-trifluoro-2-hydroxypropyl]-4,5-dihydro-1H-1,2,4-triazol-1-yl}methyl)-1H-1,2,4-triazol-1-yl]pyridin-3-yl}-2-fluoroacetamide]	23	15.7	360

The next lines start with the values.

IC50 (human V1a receptor) [nM]	ratio IC50 hV2/hV1a (human V1a receptor)	IC50 (human V2 receptor) [nM]	SMILES
67.5	3.4	232	O=C(Nc1cccnc1-n1cnc(Cn2nc(-c3ccc(Cl)cc3)n(C[C@H](O)C(F)(F)F)c2=O)n1)C(F)(F)F [Example 36, N-{2-[3-({3-(4-Chlorophenyl)-5-oxo-4-[(2S)-3,3,3-trifluoro-2-hydroxypropyl]-4,5-dihydro-1H-1,2,4-triazol-1-yl}methyl)-1H-1,2,4-triazol-1-yl]pyridin-3-yl}-2,2,2-trifluoroacetamide]
7.5	77.0	578	O=C(CC(F)(F)F)Nc1cccnc1-n1cnc(Cn2nc(-c3ccc(Cl)cc3)n(C[C@H](O)C(F)(F)F)c2=O)n1 [Example 37, N-{2-[3-({3-(4-Chlorophenyl)-5-oxo-4-[(2S)-3,3,3-trifluoro-2-hydroxypropyl]-4,5-dihydro-1H-1,2,4-triazol-1-yl}methyl)-1H-1,2,4-triazol-1-yl]pyridin-3-yl}-3,3,3-trifluoropropanamide]
4.2	52.4	220	CC(=O)Nc1cccnc1-n1cnc(Cn2nc(-c3ccc(Cl)cc3)n(C[C@H](O)C(F)(F)F)c2=O)n1 [Example 38, N-{2-[3-({3-(4-Chlorophenyl)-5-oxo-4-[(2S)-3,3,3-trifluoro-2-hydroxypropyl]-4,5-dihydro-1H-1,2,4-triazol-1-yl}methyl)-1H-1,2,4-triazol-1-yl]pyridin-3-yl}acetamide]
25.5	13.7	350	COCC(=O)Nc1cccnc1-n1cnc(Cn2nc(-c3ccc(Cl)cc3)n(C[C@H](O)C(F)(F)F)c2=O)n1 [Example 40, N-{2-[3-({3-(4-Chlorophenyl)-5-oxo-4-[(2S)-3,3,3-trifluoro-2-hydroxypropyl]-4,5-dihydro-1H-1,2,4-triazol-1-yl}methyl)-1H-1,2,4-triazol-1-yl]pyridin-3-yl}-2-methoxyacetamide]
4.25	84.7	360	O=C(Nc1cccnc1-n1cnc(Cn2nc(-c3ccc(Cl)cc3)n(C[C@H](O)C(F)(F)F)c2=O)n1)C1CC1 [Example 44, N-{2-[3-({3-(4-Chlorophenyl)-5-oxo-4-[(2S)-3,3,3-trifluoro-2-hydroxypropyl]-4,5-dihydro-1H-1,2,4-triazol-1-yl}methyl)-1H-1,2,4-triazol-1-yl]pyridin-3-yl}cyclopropanecarboxamide]
32	49.0	1570	O=C(CC1CC1)Nc1cccnc1-n1cnc(Cn2nc(-c3ccc(Cl)cc3)n(C[C@H](O)C(F)(F)F)c2=O)n1 [Example 46, N-{2-[3-({3-(4-Chlorophenyl)-5-oxo-4-[(2S)-3,3,3-trifluoro-2-hydroxypropyl]-4,5-dihydro-1H-1,2,4-triazol-1-yl}methyl)-1H-1,2,4-triazol-1-yl]pyridin-3-yl}-2-cyclopropylacetamide]
7	40.5	283	O=C(Nc1cccnc1-n1cnc(Cn2nc(-c3ccc(Cl)cc3)n(C[C@H](O)C(F)(F)F)c2=O)n1)C1(C(F)(F)F)CC1 [Example 47, N-{2-[3-({3-(4-Chlorophenyl)-5-oxo-4-[(2S)-3,3,3-trifluoro-2-hydroxypropyl]-4,5-dihydro-1H-1,2,4-triazol-1-yl}methyl)-1H-1,2,4-triazol-1-yl]pyridin-3-yl}-1-(trifluoromethyl)cyclopropanecarboxamide]
7.05	79.0	557	O=C(Nc1cccnc1-n1cnc(Cn2nc(-c3ccc(Cl)cc3)n(C[C@H](O)C(F)(F)F)c2=O)n1)C1CC(F)(F)C1 [Example 48, N-{2-[3-({3-(4-Chlorophenyl)-5-oxo-4-[(2S)-3,3,3-trifluoro-2-hydroxypropyl]-4,5-dihydro-1H-1,2,4-triazol-1-yl}methyl)-1H-1,2,4-triazol-1-yl]pyridin-3-yl}-3,3-difluorocyclobutanecarboxamide]
